These results are taken from patent publication US12201626B2, “Bifunctional compositions for the treatment of cancer” (ARMACEUTICA, INC., priority 2018, dated 2025).

Molecules are shown by their SMILES. Like-named read-outs stand apart in the source and are kept apart here.

Broadly, the CC50 is the concentration at which the toxic effect on the cells reaches its halfway point.

Data set [1] relates to plasmid dsDNA (pCMV-dR8.91). Put plainly: DNA mobility-shift assay (agarose gel). In kind it is binding. Further details: DNA mobility shift: unit of the concentration uncertain. The conditions noted are these: for DNA mobility shift: 100 ng plasmid DNA. Here is the method:
Typically, an experimental compound intercalating or binding to double stranded (ds) DNA will increase the molecular mass resulting from forming complexes, decreasing its electrophoretic mobility in an agarose gel, as compared with untreated dsDNA. To explore the potential interaction between PND and dsDNA, a DNA mobility-shift assay was conducted. Each reaction mixture was of 10 μl total volume in PBS pH 7.4. Both PND (Sigma-Aldrich) and quinacrine (Sigma-Aldrich) were tested with three individual concentrations of 1 μM, 0.5 μM or 0.25 μM, respectively. To each reaction mixture, 100 ng of plasmid dsDNA (pCMV-dR8.91; Addgene, Cambridge, MA) was added and the mixture was then incubated for 30 min at 37° C. and stopped by adding 2 μl of 6× gel loading buffer and placed on ice. The potential binding interaction between both PND and quinacrine with dsDNA were analyzed by using 1% (w/v) agarose-gel electrophoresis dissolved in TAE buffer (0.04 M Tris base, 0.04 M acetate and 0.001 M EDTA) pH 8.0. To stain the dsDNA complexes, Ethidium bromide was added to the agarose gel throughout the electrophoresis process at a concentration of 0.5 μg/ml. DNA migration was visualized by utilizing a gel documentation system and pictures were captured by using a UV-light transilluminator (Alpha Innotech, San Leandro, CA). The well-known DNA intercalator fluorescent compound, propidium iodide (PI), was included as positive controls at 1 μg per reaction. As a control, untreated plasmid DNA was included to determine its normal electrophoretic mobility in the gel.

The test system of data set [2] is MDA-MB-231 cells. Put plainly: Differential Nuclear Staining (DNS) cytotoxicity assay. In kind it is cell-based. The text has this:
(§1) In this study, 19 human cell lines were utilized: seven breast human cancer; MDA-MB-468, MCF-7, T47D, HCC1419, HCC70, MDA-MB-231 (triple negative) and its lung metastatic (LM) derivative MDA-MB-231 LM2; four human leukemia/lymphoma cells, HL-60, Ramos, Jurkat and CEM, three human ovarian cancer, Ovcar 8, Ovcar 5 and Ovcar 3, one lung cancer, one melanoma and one pancreatic cell line, A549, A375, Panc-1 respectively. Furthermore, for selectivity/comparative purposes, the cell lines from the non-cancerous origin, MCF-10A, HS-27 were also included. The culture media used for MDA-MB-231, MDA-MB-231 LM2, MDA-MB-468, MCF-7, A549, A375, Panc-1, and HS-27 was DMEM (Hyclone, Logan UT), whereas for T47D, HCC-1419, HCC-70, HL-60, Ramos, Jurkat, CEM, Ovcar 8 and Ovcar 5 was RPMI-1640 (Hyclone, Logan UT). Consistently, both DMEM and RPMI culture media was supplemented with 10% heat-inactivated fetal bovine serum (FBS: Hyclone), 100 U/ml penicillin and 100 μg/ml streptomycin (Thermo Fisher Scientific Inc., Rockford, IL). The MCF-10A cells were grown in DMEM/F12 supplemented with 10% FBS, 10 μg/ml recombinant human insulin (Sigma), 0.5 μg/ml hydrocortisone (Sigma), 20 ng/ml epidermal growth factor, 2.5 mM L-glutamine, 100 U/ml penicillin, and 100 μg/ml streptomycin. Also, a slight modification of the culture media to the HL-60 and Ovcar 3 cell lines was that 20% of FBS was added to the media (ATCC, Manassas, VA, USA). In addition, Ovcar 3 cells required 10 μg/ml recombinant human insulin (Sigma). The adherent cells, growing in the logarithmic growth phase at a 60-75% confluence, were detached by utilizing a HyQtase enzyme (Thermo Fisher Scientific Inc.), counted and seeded in 96-well plates at 10,000 cells density in 100 μL of culture medium per well. Cells growing in suspension were processed similarly as described above except for the addition of HyQtase. Typically, the incubation conditions of all the cells were at 37° C. in a 5% CO2 humidified atmosphere.
(§2) To analyze the potential cytotoxic activity of PND, the Differential Nuclear Staining (DNS) assay, which was validated for high-throughput screening (HTS) using live-cell bio-imaging was utilized. For this assay, cells were seeded at 10,000 cells/well density in a 96-well plate in 100 μl of culture media, incubated overnight, and treated with a gradient of PND concentrations for 72 h. Two hours before imaging, two fluorescent nucleic acid intercalators were added to each well, Hoechst 33342 and propidium iodide (PI; Invitrogen); at a final concentration of 1 μg/ml each. Due to its high permeability, Hoechst stains all of the cells (total dead and alive), whereas PI only stains dead or dying cells. Montages of 2 by 2 images were captured directly from each individual well of the culture plates by using a multi-well plate reader IN Cell 2000 analyzer, an HTS and high-content analysis (HCA) system (GE Healthcare Life Sciences, Pittsburgh, PA). The following controls were included in every single plate: PBS as solvent/vehicle control, hydrogen peroxide as a positive control for cytotoxicity, and untreated cells to determine the background of toxicity due to cell manipulation and intrinsic factors usually associated with the culture protocol. Each experimental data point, as well as controls, were assessed in triplicates. Cytotoxic concentration 50% (CC50) values were calculated based on a linear interpolation equation. CC50 is defined as the PND concentration required to disrupt the plasma membrane integrity of 50% of the cell population, as compared with solvent-treated cells.
(§3) The selective cytotoxicity index (SCI) denotes the capability of a given experimental compound to kill cancer cells more efficiently while inflicting minimal toxicity to non-cancerous origin cells. Thus, the SCI for PND was calculated as follow: SCI=CC50 of non-cancerous cells/CC50 of cancer cells.

The test system of data set [3] is HL-60 cells. Described as above. In kind it is cell-based.
Text: as §1, §2, §3

Experiment in data set [4]: as above
The data set is classed as cell-based. The settings on record: human; for selectivity ratio at 72 h: read-out: selective cytotoxicity index (SCI).
Text: as §1, §2, §3

Take `COC1=CC=C2Nc3cc(Cl)ccc3C(N=C3C=C(CN4CCCC4)C(=O)C(CN4CCCC4)=C3)=C2N1` [PND, 4-[(7-chloro-2-methoxy-1,5-dihydrobenzo[b][1,5]naphthyridin-10-yl)imino]-2,6-bis(pyrrolidin-1-ylmethyl)cyclohexa-2,5-dien-1-one]: the DNA mobility shift result in data set [1] (0.5 and 0.25 mM) was “clear reduction in mobility”; in data set [1] (1 (unit uncertain), 30 min 37° C.), “marked reduction of migration”. In addition, in data set [1] (fragments smaller than free supercoiled DNA), the DNA degradation result was “did not result in DNA degradation”. Also, the “selective cytotoxicity index (SCI)” value is recorded as 4.13 in data set [2] (CC50 of non-cancerous MCF-10A / CC50 of MDA-MB-231) and above 3 in data set [3]. The 50% cytotoxic concentration (CC50) in data set [2] (Homo sapiens, MDA-MB-231, 72 h, DNS assay) worked out at 1600 nM; in data set [3] (Homo sapiens, 72 h, DNS assay) it was 1900 nM. For the same compound, the selectivity ratio at 72 h in data set [4] (HL-60) is 3.5; in data set [4] (MCF-7 cells against non-cancerous MCF-10A cells, vs MCF-10A), 4.13; in data set [4] (MDA-MB-231 LM2 cells against non-cancerous MCF-10A cells, vs MCF-10A), 2.54; in data set [4] (MDA-MB-231 cells against non-cancerous MCF-10A cells, CC50 of non-cancerous MCF-10A / CC50 of MDA-MB-231), above 3; in data set [4] (MDA-MB-468 cells against non-cancerous MCF-10A cells, vs MCF-10A) it was 3.88; in data set [4] (T47D cells (against non-cancerous cells, line not specified)) it was below 1. The selectivity ratio at 72 h was below 1 in data set [4] (HCC-70); 3.3 in data set [4] (Jurkat); 3 in data set [4] (Ramos); below 2 in data set [4] (lung cancer line); 3.2 in data set [4] (melanoma cell line); below 2 in data set [4] (pancreatic cancer line). For the same compound, the selectivity ratio at 72 h in data set [4] (two of the three ovarian cancer lines) is 3.9. In data set [4] (MCF-10A non-cancerous cells), this compound had a CC50 at 72 h of 6600 nM.
